Experimental data from patent EP0571685A1, “Aryloxyheteroarylpropylamines, their preparation and use” (NOVO NORDISK A/S, priority 1992, dated 1993).

Tested on: voltage operated calcium channels (VOC)
Experiment: Inhibition of depolarization-induced 45Ca uptake into brain synaptosomes
Assay type: biochemical
Details: crude synaptosomal preparation (P₂) from male Wistar rat cerebral cortex; depolarization with 145 mM KCl; 15 s uptake; corrected for basal uptake; estimated from dose response curves
Excerpt: The pharmacological properties of the compounds of the invention can be illustrated by determining their capability to inhibit calcium uptake into brain synaptosomes.
Depolarization of neuronal membranes leads to an opening of socalled "voltage operated calcium channels" (VOC) in the membranes which allows a massive influx of calcium from the extracellular space. A crude synaptosomal preparation (socalled P₂ fraction) contains small vesicles surrounded by neuronal membrane and it is possible in such a preparation to study a depolarization-induced opening of VOC.
A male Wistar rat is decapitated and the cerebral cortex removed and homogenized in 10 ml. of ice-cold 0.32 M sucrose using a glass homogenizer with a teflon pestle. All subsequent steps for isolation of synaptosomes are done at 0-4°C. The homogenate is centrifuged at 1000 x g for 10 min and the resulting supernatant is re-centrifuged at 18000 x g for 20 min. This pellet (P₂) is resuspended in 0.32 M sucrose (5 ml per g of original tissue) with a teflon pestle.
The tubes are pre-incubated for 30 min on ice and then for 6 min at 37°C in a water bath.
The incubation is continued for 15 s.
The amount of radioactivity on the filter disc is determined by liquid scintillation spectrometry.
Test substances are dissolved in 10 ml of 48% ethanol at a concentration of 0.44 mg/ml. Dilution are made in 48% ethanol to give final concentrations of 0.1, 0.3, 1, 3 and 10 µg/ml. Experiments are performed in triplicate. Controls for depolarized and nondepolarized samples are included in the assay and test substances are only tested in depolarized samples.
The test value will be given as IC₅₀ (the concentration (µg/ml) of test substance which inhibit 50% of stimulated uptake of ⁴⁵Ca (uptake in depolarized samples corrected for basal uptake in nondepolarized samples )). The IC₅₀ value is estimated from dose response curves.

First: CCCCNCCC(Oc1ccc(C#N)cc1)c1cc(C)sc1C.O=C(O)C(=O)O (stereo not shown) [Compound 3, N-butyl-3-(4-cyanophenoxy)-3-(2,5-dimethyl-3-thienyl)propanamine, oxalate]
Second: CCCCNCCC(Oc1ccc(C(F)(F)F)cc1)c1cc(C)sc1C.O=C(O)C(=O)O (stereo not shown) [Compound 4, N-butyl-3-(2,5-dimethyl-3-thienyl)-3-(4-trifluoromethylphenoxy)propanamine, oxalate]
The “IC₅₀ (concentration of test substance which inhibit 50% of stimulated uptake of ⁴⁵Ca)” value of the first is 1.7-fold higher: 6.6 µg/mL for the first, 3.8 µg/mL for the second.

`Cc1coc(C)c1C(CCN(C)C)Oc1ccc(C(F)(F)F)cc1.O=C(O)C(=O)O` (stereo not shown) [Compound 11, N,N-Dimethyl-3-(2,4-dimethyl-3-furyl)-3-(4-trifluoromethylphenoxy)propaneamine, oxalate] and `CN(C)CCC(Oc1ccc(C(F)(F)F)cc1)c1cccs1.O=C(O)C(=O)O` (stereo not shown) [Compound 23, N,N-dimethyl-3-(2-thienyl)-3-(4-trifluoromethylphenoxy)propanamine, oxalate] are within 1.5-fold of each other in “IC₅₀ (concentration of test substance which inhibit 50% of stimulated uptake of ⁴⁵Ca)” value: 10.3 µg/mL for the first, 8.6 µg/mL for the second.

First: FC(F)(F)c1ccc(OC(CCN2CCCCC2)c2ccc(Cl)s2)cc1.O=C(O)C(=O)O (stereo not shown) [Compound 15, 1-(3-(5-chloro-2-thienyl)-3-(4-trifluoromethylphenoxy)propyl)piperidine, oxalate]
Second: FC(F)(F)c1cccc(OC(CCN2CCCCC2)c2ccc(Cl)s2)c1.O=C(O)C(=O)O (stereo not shown) [Compound 18, 1-(3-(5-chloro-2-thienyl)-3-(3-trifluoromethylphenoxy)propyl)piperidine, oxalate]
The “IC₅₀ (concentration of test substance which inhibit 50% of stimulated uptake of ⁴⁵Ca)” value of the first is 3-fold lower: 2.4 µg/mL for the first, 7.3 µg/mL for the second.

Compared with `N#Cc1cccc(OC(CCN2CCCCC2)c2ccc(Cl)s2)c1.O=C(O)C(=O)O` (stereo not shown) [Compound 16, 1-(3-(5-chloro-2-thienyl)-3-(3-cyanophenoxy)propyl)piperidine, oxalate], `FC(F)(F)c1ccccc1OC(CCN1CCCCC1)c1ccc(Cl)s1.O=C(O)C(=O)O` (stereo not shown) [Compound 17, 1-(3-(5-chloro-2-thienyl)-3-(2-trifluoromethylphenoxy)propyl)piperidine, oxalate] is 4-fold lower in “IC₅₀ (concentration of test substance which inhibit 50% of stimulated uptake of ⁴⁵Ca)” value: 12.0 µg/mL for the first, 3.0 µg/mL for the second.

`CSc1ccc(OC(CCN(C)C)c2ccc(Br)s2)cc1.O=C(O)C(=O)O` (stereo not shown) [Compound 19, 3-(5-Bromo-2-thienyl)-N,N-dimethyl-3-(4-(methylthio)phenoxy)propanamine, oxalate] and `CN(C)CCC(Oc1ccc(-c2ccccc2)cc1)c1ccc(Br)s1.O=C(O)C(=O)O` (stereo not shown) [Compound 22, 3-(5-Bromo-2-thienyl)-N,N-dimethyl-3-(4-phenylphenoxy)propanamine, oxalate] are the same in “IC₅₀ (concentration of test substance which inhibit 50% of stimulated uptake of ⁴⁵Ca)” value: 4.4 µg/mL for the first, 4.4 µg/mL for the second.

`CN(C)CCC(Oc1ccc(Oc2ccccc2)cc1)c1ccc(Br)s1.O=C(O)C(=O)O` (stereo not shown) [Compound 21, 3-(5-Bromo-2-thienyl)-N,N-dimethyl-3-(4-phenoxyphenoxy)propanamine, oxalate] and `FC(F)(F)c1ccc(OC(CCN2CCCCC2)c2cccs2)cc1.O=C(O)C(=O)O` (stereo not shown) [Compound 24, 1-(3-(2-Thienyl)-3-(4-trifluoromethylphenoxy)propyl)piperidine, oxalate] are within 1.5-fold of each other in “IC₅₀ (concentration of test substance which inhibit 50% of stimulated uptake of ⁴⁵Ca)” value: 5.9 µg/mL for the first, 5.8 µg/mL for the second.

In the case of `CN(C)CCC(Oc1ccc(C(F)(F)F)cc1)c1ccsc1.Cl` (stereo not shown) [Compound 27, N,N-dimethyl-3-(3-thienyl)-3-(4-trifluoromethylphenoxy)propanamine, hydrochloride], the “IC₅₀ (concentration of test substance which inhibit 50% of stimulated uptake of ⁴⁵Ca)” value is reported as 13 µg/mL.
